Assay results published in ChEMBL document CHEMBL5500364, “Design, synthesis, and biological evaluation of some 2-(3-oxo-5,6-diphenyl-1,2,4-triazin-2(3H)-yl)-N-phenylacetamide hybrids as MTDLs for Alzheimer's disease therapy” (Eur J Med Chem, 2024).
Calls of active or inactive are those of the source. The calls are words filed in the database; no cut-off is given here.

Legend:
[1] = Acute toxicity in Wistar rat assessed as effect on glomerulus shape at 500 to 1000 mg/kg, po administered for 14 days by histopathological analysis; format: organism-based; details: in vivo, 336 h, dose 500-1000 mg/kg, time 14 day
[2] = Total AUC in male Wistar rat at 10 mg/kg, po measured after 72 hrs by HPLC analysis; format: ADME, organism-based; details: in vivo
Rattus norvegicus [3] = test: (§1) Reversal of amyloid beta (1 to 42 residues) induced cognitive impairment in Wistar rat assessed as decrease in amyloid level in CA3 region of hippocampus at 10 mg/kg, po pretreated with amyloid beta for 7 days followed by compound administration for 9 days and measured after 5 days by immuno histochemical analysis; format: functional, organism-based; details: time 14.0 day
Rattus norvegicus [4] = test: Reversal of amyloid beta (1 to 42 residues) induced cognitive impairment in Wistar rat assessed as increase in platform crossings at 10 mg/kg, po pretreated with amyloid beta for 7 days followed by compound administration for 9 days and measured after 5 days by Morris water maze test; format: functional, organism-based; details: time 14.0 day
[5] = Acute toxicity in Wistar rat assessed as effect on PCT shape at 500 to 1000 mg/kg, po administered for 14 days by histopathological analysis; format: organism-based; details: in vivo, 336 h, dose 500-1000 mg/kg, time 14 day
Acetylcholinesterase [6] = target: T1, Acetylcholinesterase (Homo sapiens, UniProt P22303); test: Inhibition of human erythrocyte AChE using acetylthiocholine iodide as substrate preincubated for 30 mins followed by substrate addition by DTNB based Ellman's colorimetric method
T1 sequence (P22303 whole entry): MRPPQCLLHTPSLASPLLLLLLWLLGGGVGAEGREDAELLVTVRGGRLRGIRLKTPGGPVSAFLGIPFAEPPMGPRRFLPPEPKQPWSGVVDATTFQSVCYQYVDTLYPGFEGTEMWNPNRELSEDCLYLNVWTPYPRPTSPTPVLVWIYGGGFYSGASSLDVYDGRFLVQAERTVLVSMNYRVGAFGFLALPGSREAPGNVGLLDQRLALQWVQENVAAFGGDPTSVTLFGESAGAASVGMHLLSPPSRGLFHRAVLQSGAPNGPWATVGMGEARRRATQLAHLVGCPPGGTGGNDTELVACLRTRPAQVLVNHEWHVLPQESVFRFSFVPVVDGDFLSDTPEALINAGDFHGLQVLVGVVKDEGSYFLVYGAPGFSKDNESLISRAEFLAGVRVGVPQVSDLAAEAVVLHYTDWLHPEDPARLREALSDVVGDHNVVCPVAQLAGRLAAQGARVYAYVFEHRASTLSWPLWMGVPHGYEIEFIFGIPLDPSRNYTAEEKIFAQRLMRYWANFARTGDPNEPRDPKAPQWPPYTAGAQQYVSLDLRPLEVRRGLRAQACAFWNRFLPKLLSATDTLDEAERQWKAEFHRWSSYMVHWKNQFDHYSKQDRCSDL

[7] = Acute toxicity in Wistar rat assessed as toxicity symptoms at 500 to 1000 mg/kg, po administered for 14 days; format: organism-based; details: in vivo, 336 h, dose 500-1000 mg/kg, time 14 day
Hippocampus = test: Reversal of scopolamine-induced oxidative stress in male Wistar rat brain hippocampus assessed as decrease in MDA level at 2.5 to 10 mg/kg, po preadministered with compound for 30 mins starting from 7 th day trail followed by scopolamine administration and measured after 5 mins by TBARS assay; format: functional, organism-based; details: dose 2.5-10 mg/kg, time 35.0 min
[8] = Toxicity in wildtype Oregon R-positive Drosophila assessed as cell viability in gut at 10 uM by MTT assay relative to control; format: tissue-based; details: read-out: Activity
Rattus norvegicus [9] = test: as §1, with “in BACE-1” for “in amyloid”, “in DG” for “in CA3”; format: functional, organism-based; details: time 14.0 day
Acetylcholinesterase [10] = target: T1, Acetylcholinesterase; test: Mixed type non-competitive inhibition of human erythrocyte AChE using acetylthiocholine iodide as substrate assessed as dissociation constant by dixon plot analysis
[11] = target: Amyloid-beta precursor protein (Homo sapiens) (UniProt P05067); test: Inhibition of amyloid beta (1 to 42) (unknown origin) aggregation assessed as reduction in fluorescence intensity at 50 uM incubated for 48 hrs by confocal microscopic analysis
Sequence of Amyloid-beta precursor protein (Homo sapiens) (P05067 whole entry, the tested form may be a part): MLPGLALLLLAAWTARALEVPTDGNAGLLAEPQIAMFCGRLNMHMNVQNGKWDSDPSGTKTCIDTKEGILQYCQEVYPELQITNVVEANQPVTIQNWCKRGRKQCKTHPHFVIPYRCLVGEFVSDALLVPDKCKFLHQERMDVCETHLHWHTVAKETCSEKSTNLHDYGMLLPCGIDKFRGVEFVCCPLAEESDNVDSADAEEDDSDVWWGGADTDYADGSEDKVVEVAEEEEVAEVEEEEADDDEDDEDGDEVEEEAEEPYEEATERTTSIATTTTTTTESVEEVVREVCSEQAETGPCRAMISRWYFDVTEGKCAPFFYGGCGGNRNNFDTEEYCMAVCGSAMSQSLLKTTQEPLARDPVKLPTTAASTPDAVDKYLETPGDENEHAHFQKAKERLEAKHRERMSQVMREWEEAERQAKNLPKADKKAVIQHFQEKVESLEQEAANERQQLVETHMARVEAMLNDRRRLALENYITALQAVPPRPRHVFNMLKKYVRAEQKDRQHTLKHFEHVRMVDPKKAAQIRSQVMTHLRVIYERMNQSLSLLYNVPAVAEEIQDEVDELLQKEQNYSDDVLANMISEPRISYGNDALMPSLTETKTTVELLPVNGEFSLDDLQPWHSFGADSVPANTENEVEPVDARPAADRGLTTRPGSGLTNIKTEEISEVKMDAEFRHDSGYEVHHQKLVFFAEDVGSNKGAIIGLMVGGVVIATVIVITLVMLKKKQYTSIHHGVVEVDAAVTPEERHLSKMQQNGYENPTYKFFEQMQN

[12] = target: Amyloid-beta precursor protein (Homo sapiens) (UniProt P05067); test: Inhibition of amyloid beta (1 to 42) (unknown origin) aggregation assessed as maximum peak height of aggregates incubated for 48 hrs by AFM analysis
[13] = target: Amyloid-beta precursor protein (Homo sapiens) (UniProt P05067); test: Inhibition of amyloid beta (1 to 42) (unknown origin) aggregation assessed as appearance of thinner aggregates at 50 uM incubated for 48 hrs by TEM imaging analysis
Drosophila = test: Neuroprotective activity in ey-GAL4>UAS-amyloid beta (1 to 42) induced cellular toxicity in Oregon R-positive Drosophila model assessed as rescue in eye phenotype at 10 uM by Stereo zoom microscopic imaging analysis relative to control; format: functional
Rattus norvegicus [14] = test: Reversal of amyloid beta (1 to 42 residues) induced cognitive impairment in Wistar rat assessed as decrease in alpha-synuclein protein level at 10 mg/kg, po pretreated with amyloid beta for 7 days followed by compound administration for 9 days and measured after 5 days by Western blot analysis; format: functional, organism-based; details: time 14.0 day
[15] = AUC (0 to 8 hrs) in male Wistar rat at 10 mg/kg, po measured after 72 hrs by HPLC analysis; format: ADME, organism-based; details: in vivo
Beta-secretase 1 = Beta-secretase 1 (Homo sapiens, UniProt P56817); test: Inhibition of human BACE-1 using (7-Methoxycoumarin-4-acetyl-[Asn670, Leu671]-Amyloid beta/A4 precursor protein 770 fragments 667-676- (2, 4-dinitrophenyl) Lys-Arg-Arg amide trifluoroacetate salt as substrate incubated for 2 hrs by FRET-based analysis
Sequence of Beta-secretase 1 (P56817 whole entry, the tested form may be a part): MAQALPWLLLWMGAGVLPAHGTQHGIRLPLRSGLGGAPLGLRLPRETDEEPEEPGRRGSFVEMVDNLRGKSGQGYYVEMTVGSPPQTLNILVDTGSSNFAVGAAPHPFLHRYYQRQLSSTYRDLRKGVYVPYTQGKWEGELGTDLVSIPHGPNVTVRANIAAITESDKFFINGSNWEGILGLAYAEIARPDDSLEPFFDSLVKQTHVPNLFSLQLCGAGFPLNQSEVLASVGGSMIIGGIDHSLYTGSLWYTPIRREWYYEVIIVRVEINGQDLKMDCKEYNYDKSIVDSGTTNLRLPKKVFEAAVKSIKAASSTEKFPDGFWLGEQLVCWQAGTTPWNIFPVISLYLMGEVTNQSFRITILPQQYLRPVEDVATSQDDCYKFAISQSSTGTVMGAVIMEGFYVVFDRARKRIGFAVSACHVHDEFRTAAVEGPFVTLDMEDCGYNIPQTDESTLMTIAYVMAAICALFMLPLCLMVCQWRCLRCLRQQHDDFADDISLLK

Acetylcholinesterase [16] = target: T1, Acetylcholinesterase; test: Mixed type non-competitive inhibition of human erythrocyte AChE using acetylthiocholine iodide as substrate assessed as decrease in Vmax with increase in Km at 0.25 to 0.75 uM by Lineweaver-burk plot analysis; details: dose 0.25-0.75 µM
[17] = Acute toxicity in Wistar rat assessed as effect on heart tissue at 500 to 1000 mg/kg, po administered for 14 days by histopathological analysis; format: organism-based; details: in vivo, 336 h, dose 500-1000 mg/kg, time 14 day
[18] = Half-life in male Wistar rat at 10 mg/kg, po measured after 72 hrs by HPLC analysis; format: ADME, organism-based; details: in vivo
Rattus norvegicus [19] = test: Antialzheimer activity against scopolamine-induced amnesia in male Wistar rat model assessed as restoration of memory function by measuring percentage spontaneous alteration at 2.5 to 10 mg/kg, po preadministered with compound for 30 mins starting from 7 th day trail followed by scopolamine administration and measured after 5 mins by Y maze test; format: functional, organism-based; details: dose 2.5-10 mg/kg, time 35.0 min
[20] = Acute toxicity in Wistar rat assessed as effect on central vein appearance in liver at 500 to 1000 mg/kg, po administered for 14 days by histopathological analysis; format: organism-based; details: in vivo, 336 h, dose 500-1000 mg/kg, time 14 day
Rattus norvegicus [21] = test: Upregulation of ACh level in scopolamine-induced male Wistar rat brain hippocampus preadministered with compound orally for 30 mins starting from 7 th day trail followed by scopolamine administration and measured after 5 mins by GENELISA; format: functional, tissue-based; details: dose 2.5-10 mg/kg, route po, time 35.0 min
[22] = Acute toxicity in Wistar rat assessed as effect on cardiac muscle at 500 to 1000 mg/kg, po administered for 14 days by histopathological analysis; format: organism-based; details: in vivo, 336 h, dose 500-1000 mg/kg, time 14 day
[23] = Acute toxicity in Wistar rat assessed as effect on kupffer cells appearance in liver at 500 to 1000 mg/kg, po administered for 14 days by histopathological analysis; format: organism-based; details: in vivo, 336 h, dose 500-1000 mg/kg, time 14 day
Cholinesterase = Cholinesterase (Homo sapiens, UniProt P06276); test: Inhibition of human BChE using butyrylthiocholine iodide as substrate preincubated for 30 mins followed by substrate addition by DTNB based Ellman's colorimetric method
Sequence of Cholinesterase (P06276 whole entry): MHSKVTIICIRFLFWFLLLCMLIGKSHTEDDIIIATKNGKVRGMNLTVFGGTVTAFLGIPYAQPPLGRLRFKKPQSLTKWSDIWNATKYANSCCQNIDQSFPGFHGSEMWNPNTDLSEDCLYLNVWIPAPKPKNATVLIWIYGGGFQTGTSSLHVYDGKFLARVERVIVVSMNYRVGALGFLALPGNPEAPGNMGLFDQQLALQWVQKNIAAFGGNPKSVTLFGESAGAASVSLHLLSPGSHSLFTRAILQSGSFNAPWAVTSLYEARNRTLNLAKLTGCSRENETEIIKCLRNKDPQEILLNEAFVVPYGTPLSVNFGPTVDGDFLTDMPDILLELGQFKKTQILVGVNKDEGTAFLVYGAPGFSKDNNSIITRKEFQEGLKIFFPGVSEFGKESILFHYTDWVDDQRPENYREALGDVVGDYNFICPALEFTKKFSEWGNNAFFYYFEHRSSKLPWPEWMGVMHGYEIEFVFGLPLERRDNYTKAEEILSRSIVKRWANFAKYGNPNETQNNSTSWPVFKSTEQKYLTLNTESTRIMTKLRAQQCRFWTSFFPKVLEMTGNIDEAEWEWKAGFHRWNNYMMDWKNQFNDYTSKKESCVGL

[24] = target: Dual specificity tyrosine-phosphorylation-regulated kinase 1A (Homo sapiens, UniProt Q13627); test: Inhibition of Dyrk1A (unknown origin) incubated for 1 hrs in presence of [gamma-33P]-ATP by microplate scintillation counter based radiometric protein kinase assay
Rattus norvegicus [25] = test: as §1, with “in BACE-1” for “in amyloid”; format: functional, organism-based; details: time 14.0 day
SH-SY5Y = test: Neuroprotective activity against amyloid-beta(1 to 42) induced oxidative stress in differentiated human SH-SY5Y cells assessed as increase in cell viability at 40 uM preincubated with amyloid-beta (1 to 42 ) for 24 hrs followed by compound addition and measured after 48 hrs by MTT assay relative to control; format: functional
[26] = Acute toxicity in Wistar rat assessed as effect on DCT shape at 500 to 1000 mg/kg, po administered for 14 days by histopathological analysis; format: organism-based; details: in vivo, 336 h, dose 500-1000 mg/kg, time 14 day
Rattus norvegicus [27] = test: Reversal of amyloid beta (1 to 42 residues) induced cognitive impairment in Wistar rat assessed as reduction in appearance of pyknotic neuron bodies in hippocampus at 2.5 to 10 mg/kg, po pretreated with amyloid beta for 7 days followed by compound administration for 9 days and measured after 5 days by Nissl's staining based analysis; format: functional, organism-based; details: dose 2.5-10 mg/kg, time 14.0 day
Rattus norvegicus [28] = test: Reversal of amyloid beta (1 to 42 residues) induced cognitive impairment in Wistar rat assessed as decrease in BACE-1 protein level at 10 mg/kg, po pretreated with amyloid beta for 7 days followed by compound administration for 9 days and measured after 5 days by Western blot analysis; format: functional, organism-based; details: time 14.0 day

SMILES: COc1cc(NC(=O)Cn2nc(-c3ccccc3)c(-c3ccccc3)nc2=O)cc(OC)c1
- Activity [1]: Non-Toxic
- AUC at 72 h [2]: 1740 ng·h/mL
- Activity (Rattus norvegicus [3]): Active
- Activity (Rattus norvegicus [4]): Active
- Activity [5]: Non-Toxic
- IC50 (Acetylcholinesterase [6]): 0.486 µM
- Activity [7]: Non-Toxic
- Activity (Hippocampus): Active
- viability at 10 µM [8]: 78%
- Activity (Rattus norvegicus [9]): Active
- Kd (Acetylcholinesterase [10]): 0.412 µM
- inhibition [11]: Active
- Activity [12]: 253 nm
- inhibition [13]: Active
- Activity (Drosophila): 21%
- Activity (Rattus norvegicus [14]): Active
- AUC(0-t) at 72 h [15]: 1140 ng·h/mL
- IC50 (Beta-secretase 1): 0.542 µM
- inhibition (Acetylcholinesterase [16]): Active
- Activity [17]: Non-Toxic
- half-life [18]: 41 h
- Activity (Rattus norvegicus [19]): Active
- Activity [20]: Non-Toxic
- Activity (Rattus norvegicus [21]): Dose-Dependent Effect
- Activity [22]: Non-Toxic
- Activity [23]: Non-Toxic
- IC50 (Cholinesterase): > 10 µM
- IC50 [24]: > 10 µM
- Activity (Rattus norvegicus [25]): Active
- Activity (SH-SY5Y): 72%
- Activity [26]: Non-Toxic
- Activity (Rattus norvegicus [27]): Active
- Activity (Rattus norvegicus [28]): Active
